From US20160366882A1, “AGROCHEMICAL COMPOSITIONS FOR INDUCING ABIOTIC STRESS TOLERANCE” (VIB VZW, priority 2012, published 2016)

Experiments:
[1] = test system: Maize of the variety Maibi; experiment: frost tolerance in maize (crop condition index after frost regime); assay type: in vivo; conditions: 24 h later 6 hours at −2° C., assessed 2 days after treatment
Experimental: Maize of the variety Maibi was sown in small pots (8×8×8 cm) filled with universal peat at 4 grains per pot. The plants were grown in a non-heated greenhouse until BBCH 13 (3 unfolded leaves). At that stage plants were either or not treated with dichloroprop-P (Duplosan DP, 600 g/l dichloroprop-P, Nufarm UK Limited), using a Birchmeier hand sprayer with an operating pressure of 2 bar. Per object 10 pots were treated. The 10 pots were put in line, 5 cm apart, and were sprayed overhead within 6 seconds. Four different concentrations of dichloroprop-P were applied: 4 mg/l, 8 mg/1, 12 mg/l or 16 mg/l. 24 hours after treatment, the plants were transferred in to a refrigerator that was set at −2° C. for 6 hours. Afterwards the plants were transferred back to the greenhouse. The day after the cold treatment (so 2 days after application of dichloroprop-P) the plants were assessed visually for frost damage. Plants were divided into 3 categories: Good crop condition (=2), only moderate crop condition (=1) or bad crop condition (=0), based on which a crop condition index was calculated, ranging from 0 (bad crop condition) to 100 (good crop condition).

[2] = test system: Oilseed rape of the variety Alessio; experiment: salt tolerance in oilseed rape (vitality index after salt water irrigation); assay type: in vivo; conditions: 24 h later 50 ml salt water per pot, 80 grams of NaCl per liter, assessed 3 and 4 days after treatment
Experimental: Oilseed rape of the variety Alessio was sown in small pots (8×8×8 cm) filled with universal peat at 4 grains per pot. The plants were grown in a non-heated greenhouse until BBCH 13 (3 unfolded leaves). At that stage the number of plants per pot was reduced to 2, and the plants were either or not treated with dichloroprop-P (Duplosan DP, 600 g/l dichloroprop-P, Nufarm UK Limited), using a Birchmeier hand sprayer with an operating pressure of 2 bar. Per object 8 pots were treated. The 8 pots were put in line, 5 cm apart, and were sprayed overhead within 6 seconds. Two different concentrations of dichloroprop-P were applied: 4 mg/l or 8 mg/l. 24 hours after treatment, the plants were irrigated with salt water, giving 50 ml of water per pot at a concentration of 80 grams of NaCl per liter of water. The following days the plants were assessed visually for salt damage. Plants were divided into 3 categories: high vitality (=2), only moderate vitality (=1) or low vitality (=0), based on which a vitality index was calculated, ranging from 0 (low vitality) to 100 (high vitality).

[3] = test system: catalase-2 mutant A. thaliana plantlets (cat2-2); experiment: agar assay: rescue of cell death of catalase-2 mutants under photorespiratory conditions (Restricted Gas exchange Constant Light; RGCL); assay type: in vivo, Arabidopsis thaliana; conditions: grown under photorespiratory conditions
Experimental: FIG. 2: effect of 5 μM of compound 4 on the rescue of cell death of the catalase-2 mutant A. thaliana plantlets when grown under photorespiratory conditions. Photorespiratory conditions are, for example, as herein used, restricted-gas-exchange-constant light conditions. […] Photorespiration (Rp) is a major source of detrimental effects and yield losses in crop plants. Catalase is one of the crucial proteins in the Rp process since it provides the dissipation sink of photosynthetic excitation overload in the role of Rp as a photo-protective mechanism. Secondly, and as part of the same process, catalase provides effective defense against excessive hydrogen peroxide levels, without requiring additional energy from other sources. Catalase knock-out mutant plants thus provide an excellent tool to study the process of Rp (see Vandenabeele S et al., (2003) PNAS 100, 26, 16113-16118). In the disclosure, we developed a high-throughput screening assay by using a catalase-2 deficient plant. […] Fv/Fm is presented as a ratio of variable fluorescence (Fv) over the maximum fluorescence value (Fm). […] On a regular basis Fv/Fm was monitored for all wells, using a Walz Maxi PAM imager. Several days after transfer to constant light the individual wells were visually scored for cell death. […] Three persons scored independently, and only a consensus of ⅔ scores were maintained as positive hits. […]

SMILES: CC(Oc1ccc(Cl)cc1Cl)C(=O)O (stereo not shown) [dichloroprop-P]
- crop condition after frost (frost tolerance) ([1]; spray 4 mg/l at BBCH 13): better crop condition after frost
- crop condition after frost (frost tolerance) ([1]; spray 12 mg/l at BBCH 13): negative effect on frost tolerance
- crop condition after frost (frost tolerance) ([1]; spray 16 mg/l at BBCH 13): negative effect on frost tolerance
- vitality in salt stress conditions (salt stress tolerance) ([2]; spray 4 mg/l at BBCH 13): comparable increase in salt stress tolerance
- vitality in salt stress conditions (salt stress tolerance) ([2]; spray 8 mg/l at BBCH 13): comparable increase in salt stress tolerance

SMILES: CCCCC(CC)COC(=O)C(C)Oc1ccc(Cl)cc1Cl (stereo not shown) [variant 1]
- rescue of cell death of the cat2-2 mutant ([3]; 100 nM): rescues cell death

SMILES: Cc1ccnc(NC(=O)COc2ccc(Cl)cc2Cl)c1 [variant 2]
- rescue of cell death of the cat2-2 mutant ([3]; 50 nM): rescues cell death
